Measurements taken from US9663478B2, “Benzotriazine oxides as drugs targeting Mycobacterium tuberculosis” (priority 2011, dated 2017).
≈ marks a conversion by molar mass, not a printed value.

How the values were obtained:
[1] = tested on: Salmonella choleraesuis ATCC 13311; experiment: Spectrum of antimicrobial activity; type: cell-based
[2] = tested on: Enterococcus fecalis ATCC 51575; experiment: Spectrum of antimicrobial activity; type: cell-based
[3] = tested on: Moraxella catarrhalis ATCC 25238; experiment: Spectrum of antimicrobial activity; type: cell-based
NRP Mtb H37Rv cells = experiment: Low-oxygen recovery assay (LORA) MIC; type: cell-based, Mycobacterium tuberculosis; settings: Mycobacterium tuberculosis, H37RV; NRP Mtb; Tables 1-4 and text; read-out: LORA MIC - ITR
[4] = tested on: Escherichia coli ATCC 25922; experiment: Spectrum of antimicrobial activity; type: cell-based
[5] = tested on: Enterobacter aerogenes SRI Collection; experiment: Spectrum of antimicrobial activity; type: cell-based
[6] = tested on: Enterobacter aerogenes ATCC 29751; experiment: Spectrum of antimicrobial activity; type: cell-based
Mtb H37Rv = experiment: TB MIC - ITR (UIC), Institute for Tuberculosis Research; type: cell-based, Mycobacterium tuberculosis; settings: Mycobacterium tuberculosis, H37RV, read-out: TB MIC - ITR
[7] = tested on: Salmonella typhimurium tester strain TA100; experiment: Salmonella/microsome plate incorporation assay (Ames screen), TA100; type: cell-based
Excerpt: A liability in developing any bioreductively-activated antimicrobial drug is the potential for mutagenicity. Because the basis for activity of these compounds is the generation of intermediate radical species, undesirable mutagenicity poses a risk, as has been documented for many classes of bioreductive drugs, including the BTO tirapazamine (TPZ).^19,20 The most convenient methodology for assessing the potential to induce genetic damage is to use the plate incorporation method with Salmonella typhimurium strains TA98 and TA100, commonly known as the Ames assay. The Salmonella tester strains have mutations in the histidine operon, a mutation that leads to defective lipopolysaccharide (rfa), and a deletion that covers genes involved in the synthesis of biotin (bio) and in the repair of ultraviolet-induced DNA damage (uvrB).^21,22 These mutations make the strains more permeable to many molecules and increase their susceptibility to the mutagenic effects of these molecules. Given that the hypothesized mechanism of the BTO compounds is to selectively form cytotoxic radical species in bacteria over mammalian cells, a microbial mutagenicity assay is not ideal, but was used to benchmark their activities in this assay. […] Individual plate counts and their means and standard deviations, along with the condition of the background lawn, are presented in SI Table 2.
Experimental compounds were screened for microbial mutagenicity activity using the plate incorporation method with Salmonella typhimurium tester strains TA98 and TA100, in the presence and absence of an Aroclor 1254-induced rat-liver metabolic activation system containing 10% S9 (MA). The presence of the appropriate genetic characteristics was verified for the strains used in this study. Stock solutions were made by dissolving each test sample in dimethyl sulfoxide (DMSO) at 5 mg/ml. These initial stock concentrations were then serially diluted to achieve dose formulations of 100, 50, 10, 5, 1, 0.5, and 0.1 μg/plate (dosing volume 100 μl). Test plates were compared with the control plates for their revertant count and for the condition of the background bacterial lawn. A test article was considered a mutagen when the mean number of revertant colonies on the test plates exceeds the mean solvent control counts by at least a two-fold margin. Dose relatedness was also taken into account when evaluating a mutagenic response. Cytotoxicity was estimated by several parameters: a substantial decrease in the number of revertant colonies on the test plates, clearing or absence of the background bacterial lawn growth, formation of pinpoint nonrevertant colonies, or complete absence of bacterial growth.

[8] = Plasma pharmacokinetics in female mice after oral administration; type: in vivo, mouse; settings: female Balb/c mice, po 100 mg/kg
[9] = tested on: Staphylococcus aureus ATCC 29213; experiment: Spectrum of antimicrobial activity; type: cell-based
[10] = tested on: Acinetobacter baumannii BAA 1605; experiment: Spectrum of antimicrobial activity; type: cell-based
[11] = Plasma pharmacokinetics in female mice after oral administration; type: in vivo, mouse; settings: female mice, oral, 100 mg/kg
Procedure: In order to validate BTOs as a new lead series for the treatment of TB, we also evaluated their systemic exposure in the mouse after oral administration. A single dose (100 mg/kg) of 8a and 20q were administered to mice in order to profile the pharmacokinetics for the BTOs (Table 7). […] The elimination half-life was for each compound was shorter than our ideal target values, but the Tmax values indicate that they are rapidly absorbed after oral administration (FIGURE).
All pharmacokinetic studies were performed in accordance with SRI International's animal care policies in an AAALAC and OLAW accredited facility. The procedure for the pharmacokinetics studies followed a previously described method.^55 Briefly, the plasma pharmacokinetics of selected BTO derivatives were determined in female CD1 mice after administration of a single dose (100 mg/kg) by oral gavage. Blood was collected from three mice per time point at 5, 15, 30, and 60 min and 2, 4, 6, 8, and 24 h after dose administration. Means and standard deviations were calculated for the plasma drug concentrations at each time point. Pharmacokinetic analysis was performed using non compartmental methods (WinNonlin® Professional, Version 5.2, Pharsight Corp, Mountain View, Calif.). The following parameters were calculated: time to maximum plasma concentration (Tmax), maximum plasma concentration (Cmax), maximum plasma concentration extrapoloated to time 0 (C0), area under the plasma concentration-time curve to the last time point (AUClast) and to infinity (AUCinf).

[12] = tested on: Staphylococcus aureus HA-MRSA NRS 382; experiment: Spectrum of antimicrobial activity; type: cell-based
[13] = tested on: Pseudomonas aeruginosa ATCC 27853; experiment: Spectrum of antimicrobial activity; type: cell-based
[14] = tested on: Enterococcus faecium ATCC 19434; experiment: Spectrum of antimicrobial activity; type: cell-based
[15] = TA100, with metabolic activation (10% S9), 0.1 μg per plate
[16] = TA100, with metabolic activation (10% S9), 0.5 μg per plate
[17] = TA100, with metabolic activation (10% S9), 1 μg per plate
[18] = TA100, with metabolic activation (10% S9), 5 μg per plate
[19] = TA100, with metabolic activation (10% S9), 10 μg per plate
[20] = TA100, with metabolic activation (10% S9), 50 μg per plate
[21] = TA100, with metabolic activation (10% S9), 100 μg per plate
[22] = TA100, without metabolic activation, 0.1 μg per plate
[23] = TA100, without metabolic activation, 0.5 μg per plate
[24] = TA100, without metabolic activation, 1 μg per plate
[25] = TA100, without metabolic activation, 5 μg per plate
[26] = TA100, without metabolic activation, 10 μg per plate
[27] = TA100, without metabolic activation, 50 μg per plate
[28] = TA100, without metabolic activation, 100 μg per plate

[O-][n+]1nc(N2CCCC2)[n+]([O-])c2cc3c(cc21)CCC3 [Compound 20q, 3-(pyrrolidin-1-yl)-7,8-dihydro-6H-indeno[5,6-e][1,2,4]triazine 1,4-dioxide]
Antimicrobial activity, Salmonella choleraesuis [1]: >32 µg/mL | Antimicrobial activity, Enterococcus fecalis [2]: >32 µg/mL | Antimicrobial activity, Moraxella catarrhalis [3]: 10 µg/mL | MIC (NRP Mtb H37Rv cells): 0.99 µg/mL (≈ 3.64 µM) | Antimicrobial activity, Escherichia coli [4]: >32 µg/mL | Antimicrobial activity, Enterobacter aerogenes [5]: >32 µg/mL | Antimicrobial activity, Enterobacter aerogenes [6]: >32 µg/mL | MIC (Mtb H37Rv): 0.46 µg/mL (≈ 1.69 µM) | Mean revertants per plate [7, 15]: 171.5 | Ratio treated/solvent [7, 15]: 1.1 | Mean revertants per plate [7, 16]: 204.0 | Ratio treated/solvent [7, 16]: 1.3 | Mean revertants per plate [7, 17]: 180.5 | Ratio treated/solvent [7, 17]: 1.1 | Mean revertants per plate [7, 18]: 267.0 | Ratio treated/solvent [7, 18]: 1.7 | Mean revertants per plate [7, 19]: 291.5 | Ratio treated/solvent [7, 19]: 1.8 | Mean revertants per plate [7, 20]: 700.5 | Ratio treated/solvent [7, 20]: 4.4 | Mean revertants per plate [7, 21]: 916.0 | Ratio treated/solvent [7, 21]: 5.8 | Mean revertants per plate [7, 22]: 173.0 | Ratio treated/solvent [7, 22]: 1.2 | Mean revertants per plate [7, 23]: 155.0 | Ratio treated/solvent [7, 23]: 1.0 | Mean revertants per plate [7, 24]: 206.0 | Ratio treated/solvent [7, 24]: 1.4 | Mean revertants per plate [7, 25]: 303.0 | Ratio treated/solvent [7, 25]: 2.0 | Mean revertants per plate [7, 26]: 392.0 | Ratio treated/solvent [7, 26]: 2.6 | Mean revertants per plate [7, 27]: 1033.5 | Ratio treated/solvent [7, 27]: 7.0 | Mean revertants per plate [7, 28]: 1468.0 | Ratio treated/solvent [7, 28]: 9.9 | number of revertant colonies, TA100 ([7]; presence and absence of metabolic activation): dose-related increases in the number of revertant colonies | plasma drug concentration at the 24 hr time point [8]: lower than the limit of quantitation | Antimicrobial activity, Staphylococcus aureus [9]: >32 µg/mL | Antimicrobial activity, Acinetobacter baumannii [10]: >32 µg/mL | AUCinf [11]: 11248 ng·h/mL | AUClast [11]: 11219 ng·h/mL | Cmax [11]: 9767 ng/mL | Tmax [11]: 15 min | t1/2 [11]: 1.9 h | Antimicrobial activity, Staphylococcus aureus HA-MRSA [12]: >32 µg/mL | Antimicrobial activity, Pseudomonas aeruginosa [13]: >32 µg/mL | Antimicrobial activity, Enterococcus faecium [14]: >32 µg/mL
